In the Kinase Knowledgebase extract (Sharma et al. 2016):

Assays:
Test in all cases: Enzyme Assay
PIK3CD (Human) = PIK3CD (Human) (UniProt O00329)
PIK3CG (human) = PIK3CG (human) (UniProt P48736)
PIK3CB (Human) = PIK3CB (Human) (UniProt P42338)
PIK3CA (human) = PIK3CA (human) (UniProt P42336)
PIK3CA (human), sequence (P42336 whole entry, looked up): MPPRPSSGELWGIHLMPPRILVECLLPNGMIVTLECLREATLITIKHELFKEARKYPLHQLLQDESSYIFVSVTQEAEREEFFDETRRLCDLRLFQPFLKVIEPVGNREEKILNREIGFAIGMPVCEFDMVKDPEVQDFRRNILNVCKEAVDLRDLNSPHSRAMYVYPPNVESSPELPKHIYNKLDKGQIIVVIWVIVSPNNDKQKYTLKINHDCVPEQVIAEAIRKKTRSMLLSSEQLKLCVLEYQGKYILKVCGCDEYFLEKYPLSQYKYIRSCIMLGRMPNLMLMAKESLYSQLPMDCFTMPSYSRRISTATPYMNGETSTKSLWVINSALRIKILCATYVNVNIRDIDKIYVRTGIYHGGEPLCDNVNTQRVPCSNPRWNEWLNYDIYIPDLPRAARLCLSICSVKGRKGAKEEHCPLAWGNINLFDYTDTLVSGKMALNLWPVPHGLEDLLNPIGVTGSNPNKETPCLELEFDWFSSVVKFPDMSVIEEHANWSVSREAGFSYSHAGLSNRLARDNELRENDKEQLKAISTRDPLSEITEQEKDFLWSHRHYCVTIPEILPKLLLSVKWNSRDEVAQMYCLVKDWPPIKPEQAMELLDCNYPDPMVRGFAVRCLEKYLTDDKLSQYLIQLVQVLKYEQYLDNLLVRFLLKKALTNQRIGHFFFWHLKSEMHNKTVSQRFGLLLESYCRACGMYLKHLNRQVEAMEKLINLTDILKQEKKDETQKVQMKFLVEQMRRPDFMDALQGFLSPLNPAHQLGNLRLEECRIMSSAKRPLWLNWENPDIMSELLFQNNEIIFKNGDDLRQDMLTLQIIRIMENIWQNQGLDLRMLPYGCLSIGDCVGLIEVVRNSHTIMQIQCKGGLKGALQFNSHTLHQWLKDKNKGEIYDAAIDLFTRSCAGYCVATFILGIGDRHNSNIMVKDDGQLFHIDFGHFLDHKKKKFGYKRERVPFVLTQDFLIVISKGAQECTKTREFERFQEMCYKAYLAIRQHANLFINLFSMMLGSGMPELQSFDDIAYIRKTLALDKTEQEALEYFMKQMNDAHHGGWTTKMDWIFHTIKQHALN

PIK3CD (Human), sequence (O00329 whole entry, looked up): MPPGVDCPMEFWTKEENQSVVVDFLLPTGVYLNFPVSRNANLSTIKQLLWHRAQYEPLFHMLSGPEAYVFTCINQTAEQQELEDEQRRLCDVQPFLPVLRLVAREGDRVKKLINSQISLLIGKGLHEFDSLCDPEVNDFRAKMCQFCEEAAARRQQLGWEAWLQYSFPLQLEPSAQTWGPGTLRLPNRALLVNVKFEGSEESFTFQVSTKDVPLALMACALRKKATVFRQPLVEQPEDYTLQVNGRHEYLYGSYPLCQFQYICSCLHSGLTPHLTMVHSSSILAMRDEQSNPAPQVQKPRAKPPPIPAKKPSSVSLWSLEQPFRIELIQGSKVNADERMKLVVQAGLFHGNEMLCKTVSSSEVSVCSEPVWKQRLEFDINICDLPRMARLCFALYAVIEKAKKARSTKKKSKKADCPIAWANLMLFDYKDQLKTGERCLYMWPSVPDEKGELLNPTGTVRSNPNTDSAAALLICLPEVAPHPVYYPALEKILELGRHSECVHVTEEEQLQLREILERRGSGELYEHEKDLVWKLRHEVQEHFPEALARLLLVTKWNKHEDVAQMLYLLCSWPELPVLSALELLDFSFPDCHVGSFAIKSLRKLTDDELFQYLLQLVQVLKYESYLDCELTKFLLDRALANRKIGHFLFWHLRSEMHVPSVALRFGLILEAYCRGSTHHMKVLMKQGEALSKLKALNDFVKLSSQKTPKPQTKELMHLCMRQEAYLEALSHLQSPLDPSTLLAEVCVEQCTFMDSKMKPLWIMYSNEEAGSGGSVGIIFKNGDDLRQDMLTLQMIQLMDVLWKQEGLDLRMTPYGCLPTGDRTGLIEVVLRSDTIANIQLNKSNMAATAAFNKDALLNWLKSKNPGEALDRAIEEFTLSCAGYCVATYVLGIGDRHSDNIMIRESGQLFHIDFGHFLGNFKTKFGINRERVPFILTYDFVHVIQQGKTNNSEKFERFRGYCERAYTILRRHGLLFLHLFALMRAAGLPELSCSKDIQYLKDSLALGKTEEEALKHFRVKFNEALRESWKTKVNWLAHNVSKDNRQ
PIK3CG (human), sequence (P48736 whole entry, looked up): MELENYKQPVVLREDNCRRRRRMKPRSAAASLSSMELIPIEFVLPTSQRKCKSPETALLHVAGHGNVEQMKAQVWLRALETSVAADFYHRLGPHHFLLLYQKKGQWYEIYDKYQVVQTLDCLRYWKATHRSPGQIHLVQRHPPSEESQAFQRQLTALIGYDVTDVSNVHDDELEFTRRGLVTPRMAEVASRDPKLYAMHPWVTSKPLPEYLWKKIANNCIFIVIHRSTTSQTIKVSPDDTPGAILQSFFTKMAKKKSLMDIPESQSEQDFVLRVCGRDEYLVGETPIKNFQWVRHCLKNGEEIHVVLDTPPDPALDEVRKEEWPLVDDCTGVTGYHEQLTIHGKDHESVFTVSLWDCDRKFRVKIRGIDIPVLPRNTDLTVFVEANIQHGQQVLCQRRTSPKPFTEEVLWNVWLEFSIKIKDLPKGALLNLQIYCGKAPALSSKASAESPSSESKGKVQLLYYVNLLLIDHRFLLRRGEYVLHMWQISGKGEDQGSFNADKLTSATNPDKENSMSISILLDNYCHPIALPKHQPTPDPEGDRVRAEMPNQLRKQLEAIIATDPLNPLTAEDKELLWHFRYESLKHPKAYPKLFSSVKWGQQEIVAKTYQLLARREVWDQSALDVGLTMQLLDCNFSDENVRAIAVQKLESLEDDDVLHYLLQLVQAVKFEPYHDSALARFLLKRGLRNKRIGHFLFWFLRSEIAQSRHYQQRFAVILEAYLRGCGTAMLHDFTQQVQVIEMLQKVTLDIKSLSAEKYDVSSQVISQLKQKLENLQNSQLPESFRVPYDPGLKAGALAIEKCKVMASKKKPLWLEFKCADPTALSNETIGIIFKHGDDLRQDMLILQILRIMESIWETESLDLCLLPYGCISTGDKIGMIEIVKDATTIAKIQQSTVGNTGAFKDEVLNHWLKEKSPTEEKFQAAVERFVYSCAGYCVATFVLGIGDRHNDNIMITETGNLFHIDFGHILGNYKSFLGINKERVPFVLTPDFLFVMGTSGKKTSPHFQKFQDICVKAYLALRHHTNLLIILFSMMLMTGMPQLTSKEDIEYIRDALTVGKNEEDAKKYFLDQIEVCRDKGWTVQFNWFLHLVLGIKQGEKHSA
PIK3CB (Human), sequence (P42338 whole entry, looked up): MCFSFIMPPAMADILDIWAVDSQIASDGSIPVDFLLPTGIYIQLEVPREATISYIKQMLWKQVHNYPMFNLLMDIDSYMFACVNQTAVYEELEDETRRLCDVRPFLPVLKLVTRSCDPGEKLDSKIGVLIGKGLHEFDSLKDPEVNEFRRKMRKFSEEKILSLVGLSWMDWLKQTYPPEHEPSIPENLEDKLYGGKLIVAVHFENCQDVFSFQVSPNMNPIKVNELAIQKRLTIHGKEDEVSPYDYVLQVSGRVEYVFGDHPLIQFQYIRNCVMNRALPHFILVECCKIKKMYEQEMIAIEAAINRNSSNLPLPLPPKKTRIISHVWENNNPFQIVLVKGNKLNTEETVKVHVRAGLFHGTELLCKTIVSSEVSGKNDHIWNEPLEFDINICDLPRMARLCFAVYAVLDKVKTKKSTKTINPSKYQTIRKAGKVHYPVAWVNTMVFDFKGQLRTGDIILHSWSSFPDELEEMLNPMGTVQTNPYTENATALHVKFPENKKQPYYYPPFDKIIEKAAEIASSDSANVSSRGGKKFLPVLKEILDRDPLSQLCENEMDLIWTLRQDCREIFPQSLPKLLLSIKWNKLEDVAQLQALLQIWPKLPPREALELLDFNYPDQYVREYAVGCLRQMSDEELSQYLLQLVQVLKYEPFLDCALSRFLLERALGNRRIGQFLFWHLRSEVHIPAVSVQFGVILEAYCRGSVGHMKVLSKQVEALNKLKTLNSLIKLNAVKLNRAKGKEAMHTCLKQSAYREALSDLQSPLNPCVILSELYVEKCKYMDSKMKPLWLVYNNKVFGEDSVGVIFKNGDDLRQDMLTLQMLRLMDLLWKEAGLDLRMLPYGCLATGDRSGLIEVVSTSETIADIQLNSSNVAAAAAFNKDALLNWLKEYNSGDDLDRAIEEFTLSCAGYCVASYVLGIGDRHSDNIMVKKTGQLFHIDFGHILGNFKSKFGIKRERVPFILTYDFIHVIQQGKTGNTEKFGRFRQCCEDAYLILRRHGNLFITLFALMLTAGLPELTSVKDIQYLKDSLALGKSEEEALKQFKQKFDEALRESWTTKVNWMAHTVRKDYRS

SMILES	IC50 (PIK3CD (Human))	IC50 (PIK3CG (human))	IC50 (PIK3CB (Human))	IC50 (PIK3CA (human))
O=c1cc(N2CCOCC2)nc2n1CC[C@@H](C(F)(F)F)N2c1ccccc1	61 nM	1880 nM	93 nM	–
O=c1cc(N2CCOCC2)nc2n1CC[C@@H](C(F)(F)F)N2C[C@H](O)c1ccccc1	–	> 10000 nM	998 nM	–
O=c1cc(N2CCOCC2)nc2n1CC[C@@H](C(F)(F)F)N2c1cc(F)cc(F)c1	270 nM	3510 nM	340 nM	–
CC1(C)CCn2c(nc(N3CCOCC3)cc2=O)N1C[C@@H](O)c1ccccc1	1170 nM	7350 nM	4590 nM	1920 nM
CC(C)OCCN1c2nc(N3CCOCC3)cc(=O)n2CC[C@@]1(C)C(F)(F)F	27 nM	628 nM	34 nM	88 nM
CC(C)OCCN1c2nc(N3CCOCC3)cc(=O)n2CC[C@H]1C(F)(F)F	211 nM	1750 nM	233 nM	–
C[C@@H]1COCCN1c1cc(=O)n2c(n1)N(Cc1ccc(Cl)s1)[C@H](C(F)(F)F)CC2	1300 nM	–	–	2900 nM
O=c1cc(N2CCOCC2)nc2n1CC[C@@H](C(F)(F)F)N2C[C@@H](O)c1ccccc1	–	15 nM	16 nM	–
O=c1cc(N2CCOCC2)nc2n1CC[C@@H](C(F)(F)F)N2Cc1ccc(Cl)s1	169 nM	7170 nM	218 nM	502 nM
O=c1cc(N2CC3CCC(C2)O3)nc2n1CC[C@@H](C(F)(F)F)N2Cc1ccc(Cl)s1	3790 nM	–	–	3690 nM
O=c1cc(N2CCOCC2)nc2n1CC[C@@H](C(F)(F)F)N2CCc1ccccc1	14 nM	107 nM	36 nM	17 nM
O=c1cc(N2CCOCC2)nc2n1CC[C@@H](C(F)(F)F)N2Cc1ccccc1	53 nM	1600 nM	99 nM	50 nM
C[C@H]1COCCN1c1cc(=O)n2c(n1)N(Cc1ccc(Cl)s1)[C@H](C(F)(F)F)CC2	364 nM	1820 nM	643 nM	1010 nM
CC(C)OCCN1c2nc(N3CCOCC3)cc(=O)n2CCC1(C)C	4130 nM	> 10000 nM	> 10000 nM	7430 nM
O=c1cc(N2CCOCC2)nc2n1CCC1(CC1)N2C[C@@H](O)c1ccccc1	606 nM	2930 nM	3500 nM	931 nM
